Measured values from ChEMBL document CHEMBL5678804 (Cancer Cell, 2011).
Calls of active or inactive are those of the source. The rule behind the calls is not given here.

Experiments:
[1] = target: Serine/threonine-protein kinase WNK2 (Homo sapiens, UniProt Q9Y3S1); test: Inhibition of human wild type WNK2 using RBER-CHKtide as substrate preincubated for 2 hrs followed by ATP addition and measured every 2 mins for […] by spectrophotometric analysis
[2] = target: Beta-adrenergic receptor kinase 1 (Homo sapiens, UniProt P25098); test: Inhibition of human wild type GRK2 using Casein as substrate preincubated for 2 hrs followed by ATP addition and measured every 2 mins for […] by spectrophotometric analysis
CDK3/Cyclin E = CDK3/Cyclin E (Homo sapiens, UniProt Q00526); test: Inhibition of human wild type CDK3/cyclinE using RBER-CHKtide as substrate preincubated for 2 hrs followed by ATP addition and measured every 2 mins for […] by spectrophotometric analysis; type: protein-complex assay
CDK3/Cyclin E, sequence (P24864 whole entry): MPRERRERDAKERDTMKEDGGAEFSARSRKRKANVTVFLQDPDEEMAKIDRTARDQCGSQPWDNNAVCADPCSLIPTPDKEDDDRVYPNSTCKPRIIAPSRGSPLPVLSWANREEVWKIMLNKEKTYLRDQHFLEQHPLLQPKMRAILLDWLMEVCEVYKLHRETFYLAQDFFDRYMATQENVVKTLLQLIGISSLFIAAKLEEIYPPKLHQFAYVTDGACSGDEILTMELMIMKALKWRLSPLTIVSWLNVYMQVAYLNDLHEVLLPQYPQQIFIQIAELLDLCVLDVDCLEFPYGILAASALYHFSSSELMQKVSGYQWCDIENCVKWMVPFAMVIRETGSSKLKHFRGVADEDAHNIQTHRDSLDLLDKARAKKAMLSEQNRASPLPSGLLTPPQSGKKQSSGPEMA
CDK3/Cyclin E, sequence (Q00526 whole entry): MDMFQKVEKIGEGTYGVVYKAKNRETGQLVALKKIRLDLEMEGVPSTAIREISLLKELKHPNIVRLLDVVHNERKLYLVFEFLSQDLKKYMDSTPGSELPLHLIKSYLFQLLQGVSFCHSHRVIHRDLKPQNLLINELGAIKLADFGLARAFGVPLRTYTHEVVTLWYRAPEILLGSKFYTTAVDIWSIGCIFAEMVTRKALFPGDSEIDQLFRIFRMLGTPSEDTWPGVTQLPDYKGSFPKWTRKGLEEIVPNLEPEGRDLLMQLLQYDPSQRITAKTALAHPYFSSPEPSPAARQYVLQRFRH

BaF3 [3] = test: Antileukemic activity against mouse BaF3 cells harbouring BCR-ABL1 T315I mutant non-transduced with 5-FU treated bone marrow xenografted in Balb/c mouse assessed as alteration in B-lymphoid leukemia at 60 mg/kg, po administered twice daily; type: functional, organism-based
BaF3 [4] = test: Antileukemic activity against mouse BaF3 cells harbouring BCR-ABL1 T315I mutant transduced with 5-FU treated bone marrow xenografted in Balb/c mouse assessed as improvement in circulating leukocyte count at 100 mg/kg, po administered once daily measured upto 56 days; type: functional, organism-based; settings: time <= 56.0 day
[5] = target: Mitogen-activated protein kinase 3 (Homo sapiens, UniProt P27361); test: Inhibition of human wild type ERK1 using RBER-CHKtide as substrate preincubated for 2 hrs followed by ATP addition and measured every 2 mins for […] by spectrophotometric analysis
Ephrin type-B receptor 4 = Ephrin type-B receptor 4 (Homo sapiens, UniProt P54760); test: Inhibition of human wild type EPHB4 using PolyEY as substrate preincubated for 2 hrs followed by ATP addition and measured every 2 mins for […] by spectrophotometric analysis
Ephrin type-B receptor 4, sequence (P54760 whole entry): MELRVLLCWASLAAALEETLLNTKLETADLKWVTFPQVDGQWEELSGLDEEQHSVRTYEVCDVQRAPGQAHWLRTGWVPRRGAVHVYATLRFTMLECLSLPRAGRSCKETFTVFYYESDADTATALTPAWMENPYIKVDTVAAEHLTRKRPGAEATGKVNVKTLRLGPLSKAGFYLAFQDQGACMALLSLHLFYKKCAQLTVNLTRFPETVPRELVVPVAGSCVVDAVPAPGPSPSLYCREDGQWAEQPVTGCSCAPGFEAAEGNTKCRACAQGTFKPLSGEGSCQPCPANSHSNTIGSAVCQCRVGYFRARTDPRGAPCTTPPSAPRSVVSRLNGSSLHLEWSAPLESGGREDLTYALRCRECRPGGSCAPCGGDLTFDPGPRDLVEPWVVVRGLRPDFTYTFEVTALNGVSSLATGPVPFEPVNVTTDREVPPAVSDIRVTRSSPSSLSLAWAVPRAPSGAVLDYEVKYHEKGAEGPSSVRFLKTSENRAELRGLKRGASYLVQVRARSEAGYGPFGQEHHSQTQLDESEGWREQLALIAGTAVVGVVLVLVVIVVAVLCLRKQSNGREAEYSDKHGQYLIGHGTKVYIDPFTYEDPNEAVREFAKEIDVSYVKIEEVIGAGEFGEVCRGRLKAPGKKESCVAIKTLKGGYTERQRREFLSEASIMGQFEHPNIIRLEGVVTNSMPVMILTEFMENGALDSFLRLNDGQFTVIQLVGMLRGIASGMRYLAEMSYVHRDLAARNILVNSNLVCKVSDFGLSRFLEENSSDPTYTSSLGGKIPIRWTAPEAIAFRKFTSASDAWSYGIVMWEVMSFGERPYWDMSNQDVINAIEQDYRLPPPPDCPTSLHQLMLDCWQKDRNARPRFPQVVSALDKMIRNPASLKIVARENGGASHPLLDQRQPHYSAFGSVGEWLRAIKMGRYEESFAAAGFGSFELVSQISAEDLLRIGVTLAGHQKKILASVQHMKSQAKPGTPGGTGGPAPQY

[6] = target: Muscle, skeletal receptor tyrosine-protein kinase (Homo sapiens, UniProt O15146); test: Inhibition of human wild type MUSK using Poly(Ala,Glu,Lys,Tyr)6:2:5:1 as substrate preincubated for 2 hrs followed by ATP addition and measured every 2 mins for […] by spectrophotometric analysis
[7] = target: RAC-alpha serine/threonine-protein kinase (Homo sapiens, UniProt P31749); test: Inhibition of human wild type AKT1 using RBER-GSK3([…] to […]) as substrate preincubated for 2 hrs followed by ATP addition and measured every 2 mins for […] by spectrophotometric analysis
[8] = target: Receptor-interacting serine/threonine-protein kinase 2 (Homo sapiens, UniProt O43353); test: Inhibition of human wild type RIPK2 using RBER-CHKtide as substrate preincubated for 2 hrs followed by ATP addition and measured every 2 mins for […] by spectrophotometric analysis
Ephrin type-A receptor 6 = Ephrin type-A receptor 6 (Homo sapiens, UniProt Q9UF33); test: Inhibition of human wild type EPHA6 using PolyEY as substrate preincubated for 2 hrs followed by ATP addition and measured every 2 mins for […] by spectrophotometric analysis
[9] = target: PAS domain-containing serine/threonine-protein kinase (Homo sapiens, UniProt Q96RG2); test: Inhibition of human wild type PASK using RBER-CHKtide as substrate preincubated for 2 hrs followed by ATP addition and measured every 2 mins for […] by spectrophotometric analysis
[10] = target: Protein kinase C alpha type (Homo sapiens, UniProt P17252); test: Inhibition of human wild type PKC alpha using 3xChocktide-PKC(19to 31) as substrate preincubated for 2 hrs followed by ATP addition and measured every 2 mins for […] by spectrophotometric analysis
[11] = target: MAP kinase-activated protein kinase 2 (Homo sapiens, UniProt P49137); test: Inhibition of human MK2 preincubated for 2 hrs followed by ATP addition and measured every 2 mins for […] by spectrophotometric analysis
[12] = target: Interleukin-1 receptor-associated kinase 4 (Homo sapiens, UniProt Q9NWZ3); test: Inhibition of human wild type IRAK4 using RB-CTF as substrate preincubated for 2 hrs followed by ATP addition and measured every 2 mins for […] by spectrophotometric analysis
[13] = target: Mitogen-activated protein kinase kinase kinase 10 (Homo sapiens, UniProt Q02779); test: Inhibition of human wild type MLK2 using Histon H2B as substrate preincubated for 2 hrs followed by ATP addition and measured every 2 mins for […] by spectrophotometric analysis
[14] = target: Serine/threonine-protein kinase DCLK2 (Homo sapiens, UniProt Q8N568); test: Inhibition of human wild type DCamKL2 using RBER-CHKtide as substrate preincubated for 2 hrs followed by ATP addition and measured every 2 mins for […] by spectrophotometric analysis
[15] = target: Tyrosine-protein kinase receptor TYRO3 (Homo sapiens, UniProt Q06418); test: Inhibition of human wild type SKY using PolyEY as substrate preincubated for 2 hrs followed by ATP addition and measured every 2 mins for […] by spectrophotometric analysis
Tyrosine-protein kinase receptor TYRO3, sequence (Q06418 whole entry): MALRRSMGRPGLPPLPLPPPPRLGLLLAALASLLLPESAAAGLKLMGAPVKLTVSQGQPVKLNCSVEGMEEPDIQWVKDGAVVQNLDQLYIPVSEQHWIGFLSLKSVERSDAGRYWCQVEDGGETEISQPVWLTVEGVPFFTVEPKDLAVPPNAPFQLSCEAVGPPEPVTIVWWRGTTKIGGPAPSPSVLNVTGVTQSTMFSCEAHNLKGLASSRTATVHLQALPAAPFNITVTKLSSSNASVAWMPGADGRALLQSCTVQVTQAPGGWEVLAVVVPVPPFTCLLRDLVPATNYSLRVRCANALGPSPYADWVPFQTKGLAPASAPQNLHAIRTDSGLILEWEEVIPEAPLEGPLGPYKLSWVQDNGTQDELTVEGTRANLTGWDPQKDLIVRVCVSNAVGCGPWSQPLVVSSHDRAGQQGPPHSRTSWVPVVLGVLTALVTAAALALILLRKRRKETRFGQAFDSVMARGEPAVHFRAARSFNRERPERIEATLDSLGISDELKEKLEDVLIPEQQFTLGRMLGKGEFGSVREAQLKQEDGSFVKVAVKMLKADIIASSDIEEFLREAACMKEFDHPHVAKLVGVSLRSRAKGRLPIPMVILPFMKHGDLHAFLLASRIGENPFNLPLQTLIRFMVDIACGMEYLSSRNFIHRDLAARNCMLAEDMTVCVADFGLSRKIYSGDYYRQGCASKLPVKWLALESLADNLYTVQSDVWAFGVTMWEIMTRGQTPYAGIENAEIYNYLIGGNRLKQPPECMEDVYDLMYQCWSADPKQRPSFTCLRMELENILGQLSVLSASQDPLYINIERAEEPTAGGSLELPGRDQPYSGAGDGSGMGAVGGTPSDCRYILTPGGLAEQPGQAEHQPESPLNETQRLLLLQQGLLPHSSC

TGF-beta receptor type-2 = TGF-beta receptor type-2 (Homo sapiens, UniProt P37173); test: Inhibition of human wild type TGFbetaR2 using RB-S6P as substrate preincubated for 2 hrs followed by ATP addition and measured every 2 mins for […] by spectrophotometric analysis
TGF-beta receptor type-2, sequence (P37173 whole entry): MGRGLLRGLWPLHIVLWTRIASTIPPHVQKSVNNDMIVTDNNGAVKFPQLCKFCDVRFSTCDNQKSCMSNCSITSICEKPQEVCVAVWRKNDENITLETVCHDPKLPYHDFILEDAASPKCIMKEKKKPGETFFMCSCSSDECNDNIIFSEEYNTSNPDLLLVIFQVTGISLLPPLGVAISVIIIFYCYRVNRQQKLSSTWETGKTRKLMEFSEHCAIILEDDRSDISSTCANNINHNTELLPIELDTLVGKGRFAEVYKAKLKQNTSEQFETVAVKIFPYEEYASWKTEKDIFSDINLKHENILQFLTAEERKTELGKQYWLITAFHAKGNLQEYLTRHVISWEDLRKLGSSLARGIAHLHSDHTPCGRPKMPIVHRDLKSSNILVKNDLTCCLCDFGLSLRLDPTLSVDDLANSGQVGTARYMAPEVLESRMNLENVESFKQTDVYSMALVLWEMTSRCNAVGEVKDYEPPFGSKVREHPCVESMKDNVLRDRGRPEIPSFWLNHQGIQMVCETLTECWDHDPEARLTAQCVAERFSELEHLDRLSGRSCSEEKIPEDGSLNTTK

Ephrin type-A receptor 7 = Ephrin type-A receptor 7 (Homo sapiens, UniProt Q15375); test: Inhibition of human wild type EPHA7 using PolyEY as substrate preincubated for 2 hrs followed by ATP addition and measured every 2 mins for […] by spectrophotometric analysis
[16] = target: Testis-specific serine/threonine-protein kinase 2 (Homo sapiens, UniProt Q96PF2); test: Inhibition of human wild type TSSK2 using RBER-CHKtide as substrate preincubated for 2 hrs followed by ATP addition and measured every 2 mins for […] by spectrophotometric analysis
Testis-specific serine/threonine-protein kinase 2, sequence (Q96PF2 whole entry, the tested form may be a part): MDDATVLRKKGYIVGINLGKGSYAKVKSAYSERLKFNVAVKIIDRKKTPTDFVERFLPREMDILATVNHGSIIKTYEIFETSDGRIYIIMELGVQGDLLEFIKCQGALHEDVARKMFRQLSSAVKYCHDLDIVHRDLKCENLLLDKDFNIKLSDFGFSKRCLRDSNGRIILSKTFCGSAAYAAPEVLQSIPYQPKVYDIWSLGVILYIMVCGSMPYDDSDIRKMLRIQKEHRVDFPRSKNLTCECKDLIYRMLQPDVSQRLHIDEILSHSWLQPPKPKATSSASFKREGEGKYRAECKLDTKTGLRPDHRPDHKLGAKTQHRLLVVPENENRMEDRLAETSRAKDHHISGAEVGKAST

LIM domain kinase 1 = LIM domain kinase 1 (Homo sapiens, UniProt P53667); test: Inhibition of human wild type LIMK1 using CFL2 as substrate preincubated for 2 hrs followed by ATP addition and measured every 2 mins for […] by spectrophotometric analysis
[17] = target: Tyrosine-protein kinase ABL1 (Homo sapiens, UniProt P00519); settings: Sf9, time 2.0 hrs
[18] = target: Lymphokine-activated killer T-cell-originated protein kinase (Homo sapiens, UniProt Q96KB5); test: Inhibition of human wild type PBK using Histon H1 as substrate preincubated for 2 hrs followed by ATP addition and measured every 2 mins for […] by spectrophotometric analysis
Myotonin-protein kinase = Myotonin-protein kinase (Homo sapiens, UniProt Q09013); test: Inhibition of human wild type DMPK using bio-4xCHKT as substrate preincubated for 2 hrs followed by ATP addition and measured every 2 mins for […] by spectrophotometric analysis
Myotonin-protein kinase, sequence (Q09013 whole entry): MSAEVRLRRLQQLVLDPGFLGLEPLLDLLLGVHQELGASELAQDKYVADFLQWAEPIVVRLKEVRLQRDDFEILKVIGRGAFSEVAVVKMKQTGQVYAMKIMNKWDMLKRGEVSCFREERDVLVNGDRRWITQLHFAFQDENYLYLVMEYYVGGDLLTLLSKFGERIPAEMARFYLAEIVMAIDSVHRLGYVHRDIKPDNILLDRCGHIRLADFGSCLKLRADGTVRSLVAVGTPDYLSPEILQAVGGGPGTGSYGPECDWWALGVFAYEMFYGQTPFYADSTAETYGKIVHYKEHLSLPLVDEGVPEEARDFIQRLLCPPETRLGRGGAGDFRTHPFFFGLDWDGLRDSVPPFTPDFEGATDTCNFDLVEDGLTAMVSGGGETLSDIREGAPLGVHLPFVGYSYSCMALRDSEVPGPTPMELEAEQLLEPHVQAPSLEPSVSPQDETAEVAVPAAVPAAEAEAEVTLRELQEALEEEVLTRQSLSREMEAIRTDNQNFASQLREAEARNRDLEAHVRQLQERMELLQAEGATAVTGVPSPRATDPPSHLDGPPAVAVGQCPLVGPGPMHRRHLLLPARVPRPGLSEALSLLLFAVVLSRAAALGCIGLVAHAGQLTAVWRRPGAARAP

[19] = target: Serine/threonine-protein kinase 25 (Homo sapiens, UniProt O00506); test: Inhibition of human wild type STK25 using Casein as substrate preincubated for 2 hrs followed by ATP addition and measured every 2 mins for […] by spectrophotometric analysis
[20] = target: Crk-like protein (Homo sapiens) (UniProt P46109); test: Inhibition of CrkL phosphorylation in Ph+ B-ALL patient with […] mutation derived human Leukemia cell at 50 to 1000 nM by immunoblot analysis; type: cell-based; settings: dose 50-1000 nM
[21] = target: Ribosomal protein S6 kinase alpha-6 (Homo sapiens, UniProt Q9UK32); test: Inhibition of human wild type RSK4 using RBER-GSK3([…] to […]) as substrate preincubated for 2 hrs followed by ATP addition and measured every 2 mins for […] by spectrophotometric analysis
Ribosomal protein S6 kinase alpha-6, sequence (Q9UK32 whole entry): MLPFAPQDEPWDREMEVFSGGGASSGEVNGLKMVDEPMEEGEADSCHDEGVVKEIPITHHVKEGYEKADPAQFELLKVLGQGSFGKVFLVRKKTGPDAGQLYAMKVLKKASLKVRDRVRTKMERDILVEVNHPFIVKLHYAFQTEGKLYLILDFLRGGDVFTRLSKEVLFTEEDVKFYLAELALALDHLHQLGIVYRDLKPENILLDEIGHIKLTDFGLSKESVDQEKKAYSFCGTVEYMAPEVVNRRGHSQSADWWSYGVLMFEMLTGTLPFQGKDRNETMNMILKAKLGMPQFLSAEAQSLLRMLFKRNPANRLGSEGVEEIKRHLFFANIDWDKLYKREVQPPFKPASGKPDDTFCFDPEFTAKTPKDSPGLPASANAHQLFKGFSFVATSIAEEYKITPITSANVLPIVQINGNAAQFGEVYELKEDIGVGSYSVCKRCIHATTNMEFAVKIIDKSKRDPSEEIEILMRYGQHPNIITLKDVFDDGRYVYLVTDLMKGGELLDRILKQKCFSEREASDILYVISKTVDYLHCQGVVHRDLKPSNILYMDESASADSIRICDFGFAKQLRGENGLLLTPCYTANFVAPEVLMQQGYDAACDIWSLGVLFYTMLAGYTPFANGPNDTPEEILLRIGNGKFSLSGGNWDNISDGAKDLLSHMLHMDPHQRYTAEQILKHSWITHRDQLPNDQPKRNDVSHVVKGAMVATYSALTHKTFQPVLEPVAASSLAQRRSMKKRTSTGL

IC50 [1]: > 1000 nM
IC50 [2]: > 1000 nM
IC50 (CDK3/Cyclin E): > 1000 nM
IC50 [5]: > 1000 nM
IC50 (Ephrin type-B receptor 4): 64 nM
IC50 [6]: > 1000 nM
IC50 [7]: > 1000 nM
IC50 [8]: > 1000 nM
IC50 (Ephrin type-A receptor 6): 17 nM
IC50 [9]: > 1000 nM
IC50 [10]: > 1000 nM
IC50 [11]: > 1000 nM
IC50 [12]: > 1000 nM
IC50 [13]: > 1000 nM
IC50 [14]: > 1000 nM
IC50 [15]: 87 nM
IC50 (TGF-beta receptor type-2): > 1000 nM
IC50 (Ephrin type-A receptor 7): 88 nM
IC50 [16]: > 1000 nM
IC50 (LIM domain kinase 1): 61 nM
T1/2 [17]: 6.7 h
IC50 (Myotonin-protein kinase): > 1000 nM
IC50 [19]: > 1000 nM
inhibition [20]: Active
IC50 [21]: > 1000 nM
SMILES: CNC(=O)c1cc(Oc2ccc(NC(=O)Nc3cc(C(C)(C)C)nn3-c3ccc4ncccc4c3)c(F)c2)ccn1 [REBASTINIB]
Activity (BaF3 [3]): Active
Activity (BaF3 [4]): Active
IC50 [18]: > 1000 nM
